Entries after “also recorded” stand apart in the source; their conditions may differ.
Legend:
[1] = test system: patients suffering from constipation predominant IBS; test: Double blind clinical test in patients with constipation predominant IBS (Rome II criteria); assay type: in vivo, human
From the text: Clinical effects of the medicament of the present invention on patients suffering from constipation predominant IBS were studied (in accordance with Rome II diagnosis criteria).
The test conducted here was a double blind test by two groups. […] Administration period consisted of 2-week screening and 4 week treatment. […] In addition, an ameliorating ratio of each symptom, that is, stool state, difficulty in defecation, feeling of residual stool after defecation, abdominal bloating, abdominal discomfort and abdominal pain is shown in FIG. 1

[2] = test system: IBS patients; settings: score 2 = marginal improvement, 3 = small improvement; Br J Pharm Pract 1987; cited from earlier work
[3] = 0.2 mg twice a day, 4 week treatment, 9 patients in the group

Molecule	Ameliorating ratio of each symptom (stool state, difficulty in defecation, residual stool feeling, abdominal bloating, discomfort, pain), FIG. 1 ([1]; 0.2 mg group compared with placebo group)	Total impression of the patients: Aggravated (number of patients) [1, 3]	Total impression of the patients: Highly effective (number of patients) [1, 3]	Total impression of the patients: Moderately effective (number of patients) [1, 3]	Total impression of the patients: Not effective (number of patients) [1, 3]	Total impression of the patients: Slightly effective (number of patients) [1, 3]	Effectiveness relative to the placebo group ([1]; 0.2 mg twice a day, 4 weeks)	Ratio of effectiveness (total percentage of highly effective and moderately effective cases) ([1]; 0.2 mg twice a day, 4 weeks, placebo group 30%) [%]	Mean subjective score [2]
O=C(N[C@H]1CN2CCC1CC2)c1cnc2ccsc2c1O [the medicament of the present invention, (R)-N-(1-azabicyclo[2.2.2]oct-3-yl)-7-hydroxythieno[3,2-b]-pyridine-6-carboxamide]	exhibited an ameliorating ratio exceeding the placebo group in any symptoms	0	0	5	2	2	about twice; also recorded: about two fold	56	
sennoside									2.7

Source: patent US7897614B2, “Preventive agent/remedial agent for constipation predominant IBS” (Mitsubishi Tanabe Pharma Corporation, priority 2001, dated 2011)
